Test results as given in ChEMBL document CHEMBL1201862, “PubChem BioAssay data set” (2004).
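Where inhibition never reached the appropriate level, the endpoint shown equals the highest concentration tested. Otherwise, values were interpolated linearly from a five-concentration, 48-hour dose response in 96-well plates. GI50 is the concentration that inhibits growth by half.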 Active and inactive are the calls of the source. Rule as the data show it: active = GI50 up to about 1.1 µM and inactive = higher.

Legend:
Test in all cases: NCI anticancer screen, dose series, 48 h
786-0 = tested on: 786-0
A498 = tested on: A498
A549 = tested on: A549
ACHN = tested on: ACHN
BT-549 = tested on: BT-549
CAKI-1 = tested on: CAKI-1
CCRF-CEM = tested on: CCRF-CEM
COLO 205 = tested on: COLO 205
DLD-1 = tested on: DLD-1
DMS-114 = tested on: DMS-114
DMS-273 = tested on: DMS-273
DU-145 = tested on: DU-145
EKVX = tested on: EKVX
HCC 2998 = tested on: HCC 2998
HCT-116 = tested on: HCT-116
HCT-15 = tested on: HCT-15
HL-60 = tested on: HL-60
HOP-18 = tested on: HOP-18
HOP-62 = tested on: HOP-62
HT-29 = tested on: HT-29
Hs-578T = tested on: Hs-578T
IGROV-1 = tested on: IGROV-1
K562 = tested on: K562
KM-20L2 = tested on: KM-20L2
KM12 = tested on: KM12
LOX IMVI = tested on: LOX IMVI
M14 = tested on: M14
M19-MEL = tested on: M19-MEL
MCF7 = tested on: MCF7
MDA-MB-231 = tested on: MDA-MB-231
MDA-MB-435 = tested on: MDA-MB-435
MDA-N = tested on: MDA-N
MOLT-4 = tested on: MOLT-4
Malme-3M = tested on: Malme-3M
NCI-H226 = tested on: NCI-H226
NCI-H23 = tested on: NCI-H23
NCI-H460 = tested on: NCI-H460
NCI-H522 = tested on: NCI-H522
NCI/ADR-RES = tested on: NCI/ADR-RES
OVCAR-3 = tested on: OVCAR-3
OVCAR-4 = tested on: OVCAR-4
OVCAR-5 = tested on: OVCAR-5
OVCAR-8 = tested on: OVCAR-8
PC-3 = tested on: PC-3
RPMI-8226 = tested on: RPMI-8226
RXF 393 = tested on: RXF 393
SF-268 = tested on: SF-268
SF-295 = tested on: SF-295
SF-539 = tested on: SF-539
SK-MEL-28 = tested on: SK-MEL-28
SK-MEL-2 = tested on: SK-MEL-2
SK-MEL-5 = tested on: SK-MEL-5
SK-OV-3 = tested on: SK-OV-3
SN12C = tested on: SN12C
SNB-19 = tested on: SNB-19
SNB-75 = tested on: SNB-75
SNB-78 = tested on: SNB-78
SR = tested on: SR
SW-620 = tested on: SW-620
T47D = tested on: T47D
TK-10 = tested on: TK-10
U-251 = tested on: U-251
UACC-257 = tested on: UACC-257
UACC-62 = tested on: UACC-62
UO-31 = tested on: UO-31
XF498 = tested on: XF498
HOP-92 = tested on: HOP-92
LXFL 529 = tested on: LXFL 529

`O=C(O)Cc1cccc2c(=O)cc(-c3ccccc3)oc12` [MITOFLAXONE] was tested, and the GI50 (786-0) was 71.4 µM (inactive), the GI50 (A498) was 226 µM (inactive) and the GI50 (A549) was 245 µM (inactive). The GI50 (ACHN) was > 250 µM (inactive), the GI50 (BT-549) was 204 µM (inactive) and the GI50 (CAKI-1) was 142 µM (inactive). The GI50 (CCRF-CEM) was 213 µM (inactive), the GI50 (COLO 205) was > 250 µM (inactive) and the GI50 (DLD-1) was > 250 µM (inactive). The GI50 (DMS-114) was 227 µM (inactive), the GI50 (DMS-273) was > 250 µM (inactive) and the GI50 (DU-145) was > 940 µM (inactive). For the same molecule, the GI50 (EKVX) was 242 µM (inactive), the GI50 (HCC 2998) was > 250 µM (inactive) and the GI50 (HCT-116) was 206 µM (inactive). The GI50 (HCT-15) was 220 µM, the GI50 (HL-60) was > 250 µM (inactive) and the GI50 (HOP-18) was 156 µM (inactive). The GI50 (HOP-62) was 243 µM (inactive), the GI50 (HT-29) was > 250 µM (inactive) and the GI50 (Hs-578T) was 149 µM (inactive). For the same molecule, the GI50 (IGROV-1) was > 250 µM (inactive), the GI50 (K562) was 239 µM (inactive) and the GI50 (KM-20L2) was > 250 µM (inactive). For the same molecule, the GI50 (KM12) was 240 µM (inactive), the GI50 (LOX IMVI) was 243 µM (inactive) and the GI50 (M14) was > 250 µM (inactive). The GI50 (M19-MEL) was > 250 µM (inactive), the GI50 (MCF7) was 236 µM (inactive) and the GI50 (MDA-MB-231) was > 250 µM (inactive). The GI50 (MDA-MB-435) was > 250 µM (inactive), the GI50 (MDA-N) was 385 µM (inactive) and the GI50 (MOLT-4) was > 209 µM (inactive). For the same molecule, the GI50 (Malme-3M) was > 250 µM (inactive), the GI50 (NCI-H226) was 237 µM (inactive) and the GI50 (NCI-H23) was > 250 µM (inactive). For the same molecule, the GI50 (NCI-H460) was > 250 µM (inactive), the GI50 (NCI-H522) was 228 µM (inactive) and the GI50 (NCI/ADR-RES) was 222 µM (inactive). For the same molecule, the GI50 (OVCAR-3) was 235 µM (inactive), the GI50 (OVCAR-4) was 185 µM (inactive) and the GI50 (OVCAR-5) was 242 µM (inactive). For the same molecule, the GI50 (OVCAR-8) was > 175 µM (inactive), the GI50 (PC-3) was > 250 µM (inactive) and the GI50 (RPMI-8226) was 244 µM (inactive). For the same molecule, the GI50 (RXF 393) was 244 µM (inactive), the GI50 (SF-268) was > 250 µM (inactive) and the GI50 (SF-295) was 242 µM (inactive). The GI50 (SF-539) was > 250 µM (inactive), the GI50 (SK-MEL-28) was > 250 µM (inactive) and the GI50 (SK-MEL-2) was 153 µM (inactive). For the same molecule, the GI50 (SK-MEL-5) was 230 µM (inactive), the GI50 (SK-OV-3) was 242 µM (inactive) and the GI50 (SN12C) was 238 µM (inactive). For the same molecule, the GI50 (SNB-19) was > 250 µM (inactive), the GI50 (SNB-75) was 212 µM (inactive) and the GI50 (SNB-78) was > 250 µM (inactive). The GI50 (SR) was 321 µM (inactive), the GI50 (SW-620) was > 250 µM (inactive) and the GI50 (T47D) was > 250 µM (inactive). For the same molecule, the GI50 (TK-10) was > 250 µM (inactive), the GI50 (U-251) was > 250 µM (inactive) and the GI50 (UACC-257) was > 250 µM (inactive). For the same molecule, the GI50 (UACC-62) was > 250 µM (inactive), the GI50 (UO-31) was 147 µM (inactive) and the GI50 (XF498) was 33.7 µM (inactive).

In the case of `Nn1c(CCCl)nc2c(Br)cc(Br)cc2c1=O`, the GI50 (786-0) is reported as 27.7 µM (inactive), the GI50 (A498) is reported as 35.7 µM (inactive) and the GI50 (A549) is reported as 43.7 µM (inactive). For the same molecule, the GI50 (ACHN) was 22.9 µM (inactive), the GI50 (CAKI-1) was 30.7 µM (inactive) and the GI50 (CCRF-CEM) was 8.2 µM (inactive). For the same molecule, the GI50 (COLO 205) was 23.9 µM (inactive), the GI50 (DLD-1) was 26.8 µM (inactive) and the GI50 (DMS-114) was 22.5 µM (inactive). For the same molecule, the GI50 (DMS-273) was 30.3 µM (inactive), the GI50 (EKVX) was 29.8 µM (inactive) and the GI50 (HCC 2998) was 40.2 µM (inactive). For the same molecule, the GI50 (HCT-116) was 25.3 µM (inactive), the GI50 (HCT-15) was 22.1 µM and the GI50 (HL-60) was 2.77 µM (inactive). The GI50 (HOP-18) was 33.3 µM (inactive), the GI50 (HOP-62) was 26.8 µM (inactive) and the GI50 (HOP-92) was 33 µM (inactive). For the same molecule, the GI50 (HT-29) was 32.7 µM (inactive), the GI50 (IGROV-1) was 21 µM (inactive) and the GI50 (K562) was 13.2 µM (inactive). For the same molecule, the GI50 (KM-20L2) was 26 µM (inactive), the GI50 (KM12) was 18.7 µM (inactive) and the GI50 (LOX IMVI) was 25.5 µM (inactive). The GI50 (LXFL 529) was 24.7 µM (inactive), the GI50 (M14) was 30.3 µM (inactive) and the GI50 (M19-MEL) was 32.1 µM (inactive). For the same molecule, the GI50 (MOLT-4) was 22.7 µM (inactive), the GI50 (Malme-3M) was > 69.5 µM (inactive) and the GI50 (NCI-H226) was 28.5 µM (inactive). The GI50 (NCI-H23) was 24 µM (inactive), the GI50 (NCI-H460) was 25.3 µM (inactive) and the GI50 (NCI-H522) was 15.9 µM (inactive). The GI50 (OVCAR-3) was 9.62 µM (inactive), the GI50 (OVCAR-4) was 19.1 µM (inactive) and the GI50 (OVCAR-5) was 30.1 µM (inactive). The GI50 (OVCAR-8) was 41.5 µM (inactive), the GI50 (RPMI-8226) was 24.4 µM (inactive) and the GI50 (RXF 393) was 36.1 µM (inactive). The GI50 (SF-268) was 37.1 µM (inactive), the GI50 (SF-295) was 31.7 µM (inactive) and the GI50 (SF-539) was 40.7 µM (inactive). The GI50 (SK-MEL-28) was 37.2 µM (inactive), the GI50 (SK-MEL-2) was 33.1 µM (inactive) and the GI50 (SK-MEL-5) was 17.3 µM (inactive). The GI50 (SK-OV-3) was 33.1 µM (inactive), the GI50 (SN12C) was 30.8 µM (inactive) and the GI50 (SNB-19) was 51.9 µM (inactive). The GI50 (SNB-75) was 27.8 µM (inactive), the GI50 (SNB-78) was 34 µM (inactive) and the GI50 (SR) was 20.3 µM (inactive). The GI50 (SW-620) was 20.5 µM (inactive), the GI50 (TK-10) was 34.3 µM (inactive) and the GI50 (U-251) was 23.1 µM (inactive). The GI50 (UACC-257) was 34.9 µM (inactive), the GI50 (UACC-62) was 31.9 µM (inactive) and the GI50 (UO-31) was 25.1 µM (inactive). For the same molecule, the GI50 (XF498) was 20.6 µM (inactive).
